The target in this assay is S1P1 (Homo sapiens (Human), UniProt P21453). As to the kind of experiment: 35S-GTPγS binding, membranes from CHO cells expressing S1P1. Type of assay: biochemical. Conditions: CHO cell membranes. Here is the method: Cells were suspended in 50 mM TRIS, pH 7.4, 2 mM EDTA, 250 mM Sucrose (buffer A) and 1× Complete protease inhibitor cocktail (Roche), and disrupted at 4° C. by N2 decompression using a cell disruption bomb (Parr Instrument). Following centrifugation at 1000 RPM for 10 min at 4° C., the supernatant was suspended in buffer A and centrifuged again at 19000 RPM for 60 min at 4° C. The pellet was then suspended in 10 mM HEPES, pH 7.4, 1 mM EDTA, 250 mM Sucrose (Buffer B), and 1× Complete EDTA-free protease inhibitor cocktail and homogenized using a potter. Membranes were flash frozen in liquid N2 and stored at −80° C. [33P]sphingosine 1-phosphate (3000 Ci/mmol; American Radiolabeled Chemicals, Inc.) was added to test compounds in DMSO. […] Specific binding was calculated by subtracting remaining radioactivity in the presence of 1000-fold excess of unlabeled SIP. Binding data were analyzed using the GraphPad Prism program.
Sequence of S1P1 (P21453 whole entry, species assumed): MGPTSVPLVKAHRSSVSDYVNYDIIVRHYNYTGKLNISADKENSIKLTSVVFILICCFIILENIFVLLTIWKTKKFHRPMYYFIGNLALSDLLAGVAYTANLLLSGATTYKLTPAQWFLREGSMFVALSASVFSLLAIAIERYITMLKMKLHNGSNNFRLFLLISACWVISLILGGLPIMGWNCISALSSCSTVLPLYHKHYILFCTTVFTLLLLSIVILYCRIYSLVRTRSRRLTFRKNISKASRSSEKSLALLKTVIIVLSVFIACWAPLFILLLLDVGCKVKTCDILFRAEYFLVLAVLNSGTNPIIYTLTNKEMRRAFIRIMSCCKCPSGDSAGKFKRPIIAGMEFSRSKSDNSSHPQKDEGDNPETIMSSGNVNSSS
After 60 min incubation at 30° C. on a shaker, plates were centrifuged for 10 min at 2000 RPM. […] Triplicate samples were averaged and expressed as % response relative to S1P activation in absence of compound (n=2).
For orientation: Binding of GTPγS marks nucleotide exchange on a G protein.

The term EC50 denotes the concentration at which the effect is half-maximal.

`OCc1ccc(-c2noc(-c3cnn(C4CCCCC4)c3-c3ccncc3)n2)cc1` [Example 29, {4-[5(1-cyclohexyl-5-pyridin-4-yl-1H-pyrazol-4-yl)-1,2,4-oxadiazol-3-yl]phenyl}methanol] gave an EC50 of 0.024 µM.

Consider `Fc1ccc(F)c(-c2noc(-c3cnn(C4CCCC4)c3-c3ccncc3)n2)c1` [Example 30, 4-{1-cyclopentyl-4-[3-(2,5-difluorophenyl)-1,2,4-oxadiazol-5-yl]-1H-pyrazol-5-yl}Pyridine], for which the response was half-maximal at 0.02 µM (EC50). `CC(C)Cn1ncc(-c2nc(-c3cc(F)ccc3F)no2)c1C1CCOCC1` [Example 32, 3-(2,5-difluorophenyl)-5-[1-isobutyl-5-(tetrahydro-2H-pyran-4-yl)-1H-pyrazol-4-yl]-1,2,4-oxadiazole] showed an EC50 of 0.18 µM. Next, `Fc1ccc(F)c(-c2noc(-c3cnn(C4CCOCC4)c3-c3ccccc3)n2)c1` [Example 33, 3-(2,5-difluorophenyl)-5-[5-phenyl-1-(tetrahydro-2H-pyran-4-yl)-1H-pyrazol-4-yl]-1,2,4-oxadiazole]: 0.216 µM. `Fc1ccc(F)c(-c2noc(-c3cnn(CCNC4CC4)c3-c3ccccc3)n2)c1` [Example 35, N-(2-{4-[3-(2,5-difluorophenyl)-1,2,4-oxadiazol-5-yl]-5-phenyl-1H-pyrazol-1-yl}ethyl)cyclopropanamine] registered an EC50 of 0.931 µM. Take `CC(C)Cn1ncc(-c2nc(-c3ccc4c(c3)CNCC4)no2)c1-c1ccncc1` [Example 36, 7-[5-(1-isobutyl-5-pyridin-4-yl-1H-pyrazol-4-yl)-1,2,4-oxadiazol-3-yl]-1,2,3,4-tetrahydroisoquinoline]: the EC50 came to 0.114 µM. The value for `c1cc(-c2c(-c3nc(-c4ccc5c(c4)CNCC5)no3)cnn2C2CCCCC2)ccn1` [Example 39, 7-[5-(1-cyclohexyl-5-pyridin-4-yl-1H-pyrazol-4-yl)-1,2,4-oxadiazol-3-yl]-1,2,3,4-tetrahydroisoquinoline] was 0.016 µM; that for `CC(C)Cn1ncc(-c2nc(-c3cccc(S(C)(=O)=O)c3)no2)c1-c1ccncc1` [Example 43, 4-(1-isobutyl-4-{3-[3-(methylsulfonyl)phenyl]-1,2,4-oxadiazol-5-yl}-1H-pyrazol-5-yl)pyridine] was 0.292 µM. With `Fc1ccc(F)c(-c2noc(-c3cnn(C4CCC4)c3-c3ccncc3)n2)c1` [Example 44, 4-{1-cyclobutyl-4-[3-(2,5-difluorophenyl)-1,2,4-oxadiazol-5-yl]-1H-pyrazol-5-yl}pyridine], the EC50 stood at 0.402 µM. Consider `OC1CCN(Cc2ccc(-c3noc(-c4cnn(C5CCCCC5)c4-c4ccncc4)n3)cc2)C1` (stereo not shown) [Example 45, 1-{4-[5-(1-cyclohexyl-5-pyridin-4-yl-1H-pyrazol-4-yl)-1,2,4-oxadiazol-3-yl]benzyl}pyrrolidin-3-ol], for which the response was half-maximal at 0.01 µM (EC50).

Consider `C[C@H]1CCCC[C@@H]1n1ncc(-c2nc(-c3cc(F)ccc3F)no2)c1-c1ccccc1` [Example 46, 3-(2,5-difluorophenyl)-5-{1-[(1S,2S)-2-methylcyclohexyl]-5-phenyl-1H-pyrazol-4-yl}-1,2,4-oxadiazole], for which the EC50 was found to be 0.026 µM. Molecule `Cc1ccccc1-c1c(-c2nc(-c3cc(F)ccc3F)no2)cnn1C1CCCCC1` [Example 48, 5-[1-cyclohexyl-5-(2-methylphenyl)-1H-pyrazol-4-yl]-3-(2,5-difluorophenyl)-1,2,4-oxadiazole] showed an EC50 of 0.047 µM. Molecule `COCc1c(-c2nc(-c3ccc(CO)cc3)no2)cnn1C1CCCCC1` [Example 49, (4-{5-[1-cyclohexyl-5-(methoxymethyl)-1H-pyrazol-4-yl]-1,2,4-oxadiazol-3-yl}phenyl)methanol] displayed an EC50 of 0.229 µM. Molecule `CC(C)Cn1ncc(-c2nc(-c3cccc(C(F)(F)F)c3)no2)c1C1CCOCC1` [Example 50, 5-[1-isobutyl-5-(tetrahydro-2H-pyran-4-yl)-1H-pyrazol-4-yl]-3-[3-(trifluoromethyl)phenyl]-1,2,4-oxadiazole] returned an EC50 of 0.211 µM.

As for `c1ccc(-c2nc(-c3cnn(C4CCCCC4)c3-c3ccccc3)no2)cc1` [Example 51, 3-(1-cyclohexyl-5-phenyl-1H-pyrazol-4-yl)-5-phenyl-1,2,4-oxadiazole], the concentration giving a half-maximal response (EC50) amounted to 0.31 µM. For the molecule `Fc1ccccc1-c1nc(-c2cnn(C3CCCCC3)c2-c2ccccc2)no1` [Example 52, 3-(1-cyclohexyl-5-phenyl-1H-pyrazol-4-yl)-5-(2-fluorophenyl)-1,2,4-oxadiazole], the response was half-maximal at 0.313 µM (EC50). Consider `c1ccc(-c2c(-c3noc(-c4cccnc4)n3)cnn2C2CCCCC2)cc1` [Example 53, 3-[3-(1-cyclohexyl-5-phenyl-1H-pyrazol-4-yl)-1,2,4-oxadiazol-5-yl]pyridine], for which the EC50 was determined as 0.164 µM. For the molecule `CC(C)Cn1ncc(-c2nc(-c3ccc(CO)cc3)no2)c1-c1ccncc1` [Example 54, {4-[5-(1-isobutyl-5-pyridin-4-yl-1H-pyrazol-4-yl)-1,2,4-oxadiazol-3-yl]phenyl}methanol], the response was half-maximal at 0.189 µM (EC50). `CNCc1ccc(-c2noc(-c3cnn(C4CCCCC4)c3-c3ccncc3)n2)cc1` [Example 55, 1-{4-[5-(1-cyclohexyl-5-pyridin-4-yl-1H-pyrazol-4-yl)-1,2,4-oxadiazol-3-yl]phenyl}-N-methylmethanamine]: the EC50 turned out to be 0.024 µM.

As to `OCCNCc1ccc(-c2noc(-c3cnn(C4CCCCC4)c3-c3ccncc3)n2)cc1` [Example 56, 2-({4-[5-(1-cyclohexyl-5-pyridin-4-yl-1H-pyrazol-4-yl)-1,2,4-oxadiazol-3-yl]benzyl}amino)ethanol], the concentration giving a half-maximal response (EC50) was 0.011 µM. `Fc1ccc(F)c(-c2nc(-c3cnn(C4CCCCC4)c3-c3ccccc3)no2)c1` [Example 57, 3-(1-cyclohexyl-5-phenyl-1H-pyrazol-4-yl)-5-(2,5-difluorophenyl)-1,2,4-oxadiazole] returned an EC50 of 0.049 µM.

On to `CS(=O)(=O)c1cccc(-c2nc(-c3cnn(C4CCCCC4)c3-c3ccccc3)no2)c1` [Example 58, 3-(1-cyclohexyl-5-phenyl-1H-pyrazol-4-yl)-5-[3-(methylsulfonyl)phenyl]-1,2,4-oxadiazole], for which the EC50 was 0.157 µM. Turning to `FC(F)(F)c1cccc(-c2nc(-c3cnn(C4CCCCC4)c3-c3ccccc3)no2)c1` [Example 59, 3-(1-cyclohexyl-5-phenyl-1H-pyrazol-4-yl)-5-[3-(trifluoromethyl)phenyl]-1,2,4-oxadiazole], the EC50 is 0.335 µM. Next, `Cc1c(-c2nc(-c3cc(F)ccc3F)no2)cnn1-c1ccccc1F` [Example 60, 3-(2,5-difluorophenyl)-5-[1-(2-fluorophenyl)-5-methyl-1H-pyrazol-4-yl]-1,2,4-oxadiazole]: 0.32 µM; `CN(CC(=O)O)Cc1ccc(-c2noc(-c3cnn(C4CCCCC4)c3-c3ccncc3)n2)cc1` [Example 61, N-{4-[5-(1-cyclohexyl-5-pyridin-4-yl-1H-pyrazol-4-yl)-1,2,4-oxadiazol-3-yl]benzyl}-N-methylglycine]: 0.022 µM.

`OC1CN(Cc2ccc(-c3noc(-c4cnn(C5CCCCC5)c4-c4ccncc4)n3)cc2)C1` [Example 62, 1-{4-[5-(1-cyclohexyl-5-pyridin-4-yl-1H-pyrazol-4-yl)-1,2,4-oxadiazol-3-yl]benzyl}azetidin-3-ol]: the EC50 turned out to be 0.003 µM. In the case of `CC(C)Cn1ncc(-c2nc(-c3ccc(CO)cc3)no2)c1C1CCOCC1` [Example 63], the midpoint of the response, the EC50, lay at 0.428 µM. Consider `COCc1c(-c2nc(-c3ccc(CN4CCC(C(=O)O)CC4)cc3)no2)cnn1C1CCCCC1` [Example 64, 1-(4-{5-[1-cyclohexyl-5-(methoxymethyl)-1H-pyrazol-4-yl]-1,2,4-oxadiazol-3-yl}benzyl)piperidine-4-carboxylic acid], for which the EC50 came to 0.099 µM. Take `O=C(O)CCNCc1ccc(-c2noc(-c3cnn(C4CCCCC4)c3-c3ccncc3)n2)cc1` [Example 65, N-{4-[5-(1-cyclohexyl-5-pyridin-4-yl-1H-pyrazol-4-yl)-1,2,4-oxadiazol-3-yl]benzyl}-beta-alanine]: the EC50 was 0.001 µM. `c1cc(-c2c(-c3nc(-c4ccc(CN5CCC5)cc4)no3)cnn2C2CCCCC2)ccn1` [Example 66, 4-(4-{3-[4-(azetidin-1-ylmethyl)phenyl]-1,2,4-oxadiazol-5-yl}-1-cyclohexyl-1H-pyrazol-5-yl)pyridine] came in with an EC50 of 0.013 µM.

Molecule `COCc1c(-c2nc(-c3ccc(CNCCC(=O)O)cc3)no2)cnn1C1CCCCC1` [Example 67, N-(4-{5-[1-cyclohexyl-5-(methoxymethyl)-1H-pyrazol-4-yl]-1,2,4-oxadiazol-3-yl}benzyl)-beta-alanine] returned an EC50 of 0.0014 µM. Molecule `COCc1c(-c2nc(-c3ccc(CN4CC(C(=O)O)C4)cc3)no2)cnn1C1CCCCC1` [Example 68, 1-(4-{5-[1-cyclohexyl-5-(methoxymethyl)-1H-pyrazol-4-yl]-1,2,4-oxadiazol-3-yl}benzyl)azetidine-3-carboxylic acid] came in with an EC50 of 0.0003 µM. In the case of `COCc1c(-c2nc(-c3ccc(CO)cc3)no2)cnn1CC(C)C` [Example 69, (4-{5-[1-isobutyl-5-(methoxymethyl)-1H-pyrazol-4-yl]-1,2,4-oxadiazol-3-yl}phenyl)methanol], the EC50 amounted to 0.437 µM. `OCc1ccc(-c2noc(-c3cnn(C4CCCCC4)c3C3CCOCC3)n2)cc1` [Example 70, (4-{5-[1-cyclohexyl-5-(tetrahydro-2H-pyran-4-yl)-1H-pyrazol-4-yl]-1,2,4-oxadiazol-3-yl}phenyl)methanol] gave an EC50 of 0.082 µM.

Values taken from US8802663B2, “Pyrazole oxadiazole derivatives as S1P1 agonists” (Merck Serono SA, priority 2009, dated 2014).
